{
  "source": "patent US7115556B2",
  "about": "“Use of anti-prolactin agents to treat proliferative conditions” (Greenville Hospital System, priority 1998, dated 2006)",
  "key": {"[1]": {"test_system": "BT-474 cells", "assay": "TUNEL assay, BT-474", "type": "cell-based, human", "conditions": "4-OH-Tamoxifen 1 μM, 24 hours", "description": "(§1) Cell Culture. T-47D cells obtained from ATCC were grown in RPMI 1640 (phenol red free), supplemented with 10% FBS (GIBCO BRL). BT-474 cells were grown in RPMI 1640 medium (phenol red free) supplemented with 10% FBS and ATCC recommended supplements. MCF-7 cells were grown in DMEM medium (phenol red free), supplemented with 10% FBS. The cells were grown at 37° C. in a humid atmosphere in the presence of 5% CO2. The MDA-MB-134 cells were grown in Leibovitz's L-15 medium supplemented with 20% FBS and grown in CO2 free atmosphere. The breast cancer cells were trypsinized (0.02% Trypsin—EDTA) and grown in their respective media (phenol red free) supplemented with 10% CSS (Charcoal stripped serum) for a week. Subsequently the cells were trypsinized again and plated onto an 8 chambered slide system (Lab Tek II) at a confluence of 60–70% per chamber. The next day treatments were performed on the breast cancer cells using their respective media(phenol red free), supplemented with 1% CSS. The MDA-MB-134 VI cells were grown in phenol red containing medium, but with the same serum conditions as the other breast cancer cells.\n(§2) Terminal deoxynucleotidly transferase mediated dUTP nick end labeling (TUNEL) assay. Nicks of the fragmented DNA are labeled at their 3-OH ends. The fluorescein-labeled dUTP is incorporated at the 3-OH ends by using the enzyme terminal deoxynucleotidyl transferase. After the assigned period of treatment the chambers were dismantled as per the manufacturer's instructions and the TUNEL assay (Apoptosis detection system, Fluorescein- Promega) was performed as per the manufacturer's instructions. The slide was examined under a FITC filter using an Olympus IX 70 microscope system."}, "[2]": {"test_system": "MCF-7 cells", "assay": "TUNEL assay, MCF-7", "type": "cell-based, human", "conditions": "4-OH-Tamoxifen 1 μM, 24 hours", "description": "as §1\nTerminal deoxynucleotidly transferase mediated dUTP nick end labeling (TUNEL) assay. Nicks of the fragmented DNA are labeled at their 3-OH ends. The fluorescein-labeled dUTP is incorporated at the 3-OH ends by using the enzyme terminal deoxynucleotidyl transferase. […]"}, "[3]": {"test_system": "T47-D human breast cancer cells", "assay": "96 well cell proliferation assay with conditioned media (MTS-PMS)", "type": "cell-based", "description": "HPRLG129R Conditioned Media. The assay conditions were modified from that described by Ginsburg and Vonderharr (1995, Cancer Res. 55:2591–2595). T47-D cells were trypsinized and passed into 96 well plates in RPMI-1640 media containing 1% DCC-FCS in a volume of 100 μl/well. The optimal cell number/well for each cell line was pre-determined after titration assay. For T47-D cells, 15,000 cells/well were plated. The cells were allowed to settle and adhere overnight (12–18 hours) and subsequently various concentrations of either hPRL, hRPL-G129R, E2 or 4-OH-Tamoxifen in a total volume of 100 μl of culture media were added. Purified hPRL (kindly provided by Dr. Parlow, National Hormone & Pituitary Program, NIH) was used as a positive control for hPRL produced from stable L cells. Cells were incubated for an additional 96 hours at 37° C. in a humidified 5% CO2 incubator. After incubation, MTS-PMS solution (Cell Titer 96 Aqueous kit, Promega Corp.) was added to each well, following the manufacturer's instructions. Plates were read at 490 nm using a BIO-RAD benchmark microplate reader. The experiments were carried out in triplicates and repeated three to six times for each cell line."}, "[4]": {"test_system": "T-47D human breast cancer cells", "assay": "TUNEL assay, T-47D", "type": "cell-based", "description": "as §1, §2"}, "[5]": {"test_system": "T47D human breast cancer cells", "assay": "Cell proliferation assay, cell counting", "type": "cell-based", "conditions": "for proliferation of T47D cells relative to untreated control cultures: FIGS. 5A-B; for shape of dose response curve, T-47D cell number: FIG. 4", "description": "Cell proliferation assays. hPRLA was tested for its ability to inhibit breast cancer cell proliferation in tissue culture. The human breast cancer cells were grown in corresponding culture media according to ATCC recommendations. Cells were maintained at 37° C. in a humidified atmosphere of 5% CO2 in air. The assay conditions were essentially as described by Ginsburg and Vonderharr (1995, Cancer Res. 55:2591–2595). For individual growth experiments, cells were plated in 12 well culture plates at a density of approximately 2×10^4 /ml, 1 ml/ well. Cells were then allowed to attach for one day (T-47D, MCF-7, HTB19, and HTB20 cells, except for HTB 123, which is a suspension cells), then the overlying media was removed and changed to serum-free conditions with media containing ITS^+ (insulin-transferring-selenium-BSA-linoleic acid culture supplement; Collaborative Research Bedford, Mass.). Varying concentrations of hPRL alone or in combination with hPRLA were introduced. After an additional three days in culture, cells were harvested after brief trypsinization and counted in a cell counter."}, "[6]": {"test_system": "tyrosine phosphorylation of STAT protein", "conditions": "literature; cited from earlier work"}, "[7]": {"test_system": "hGH receptor on T-47D and HTB123 cells", "assay": "Competitive radioreceptor binding assay", "parameters": "species or system human", "conditions": "T-47D and HTB123 compared to leukemia, lymphoma and retinoblastoma cells"}, "[8]": {"test_system": "T47D human breast cancer cells", "assay": "Mixed cell culture assay with transfected L cells, T47D", "type": "cell-based", "conditions": "co-culture with transfected L cells, 24 h to five days", "from_the_text": "For certain experiments, a mixed cell culture assay was used, diagramatically represented in FIG. 6. In this assay, breast cancer cells were co-cultured with expressor cells which had been transfected with nucleic acid encoding PRL or a PRL variant and expressing those recombinant proteins. By varying the number of expressor cells, the amount of PRL or PRL variant present in the mixed cell culture was increased or decreased. […] In certain wells, which served as a control, no expresser cells were added. Then, increasing numbers of expresser cells (transfected L cells expressing either HPRL (L-PRL) or hPRLA (L-PRLA)) were added to breast cancer cell-containing wells to create mixed cultures. The same numbers of expressor cells were cultured in parallel (without T47D cells) to serve as controls. After culturing under standard conditions for a period of time, the number of cells present in the wells was counted, and the number of L cells in the corresponding control culture was subtracted. The resulting number could then be compared to the number of T47D cells in the T47D control culture to evaluate the effects of the recombinant product on breast cancer cell proliferation."}, "[9]": {"test_system": "tyrosine phosphorylation of STAT5 protein in T-47D human breast cancer cells", "assay": "hPRL induction of tyrosine phosphorylation of STAT5 protein (Example 8)", "type": "cell-based", "conditions": "T-47D cells, 5 nM of hormone alone, Western blot FIG. 3", "from_the_text": "Assay of hPRL induction of tyrosine phosphorylation of STAT5 protein. […] Tyrosyl phosphorylation of STAT 5 is a receptor mediated event and is thought to be an important step in ligand-induced signal transduction (Wakao et al., 1994, EMBO J. 13: 2182–2191; Kazansky et al., 1995, Mol. Endocrinol. 9:1598–1609; Waxman et al., 1995, J. Biol. Chem. 270:13262–13270). This assay was used to evaluate the ability of hPRL and hPRLA to inhibit induction of STAT 5 phosphorylation by wild type PRL.\nBriefly, human breast cancer cells were plated in 12-well plates. After pre-incubation in serum-free DMEM for 2–3 hours, the cells were exposed to various concentration of hPRL and hPRLA in serum-free DMEM. The cells were incubated for 15 min at 37° C., washed once with PBS, and lysed in 300 μl lysis buffer (50 mM Tris-HCl, pH 6.8, 1% SDS, 1% β-mecaptoethanol, 0.1M DTT, 5% Sucrose, 100 uM Sodium Orthovanadate, and 0.6% bromphenol blue). Thirty microliters of cell lysates were subjected to 4–12.5% SDS-PAGE and immunoblot analysis using horse radish peroxidase (HRP)-conjugated anti-phosphotyrosine antibody PY20 and ECL reagent kit (Amersham, Ill.). Blots were then exposed to X-ray films and developed using standard procedures (Kodak, Rochester, N.Y.). This assay has been described in Chen et al., 1994, J. Biol. Chem. 269: 15892–15897; Chen et al., 1995, Endocrinol. 136:660–667; Wang et al., 1994, Proc. Natl. Acad. Sci. U.S.A. 91:1391–1395; Chen et al., 1995, Mol. Endocrinol. 9(3):292–302; Harding et al., 1996, J. Biol. Chem. 271(12):6708–6712."}},
  "data": [
    {"molecule": "CC/C(=C(\\c1ccc(O)cc1)c1ccc(OCCN(C)C)cc1)c1ccccc1", "note": "[4-OH-Tamoxifen, reference compound]", "values": [
      {"measurement": "induction of apoptosis", "setting": "[1]", "result": "did not induce apoptosis"},
      {"measurement": "induction of apoptosis", "setting": "[2]", "result": "did not induce apoptosis"},
      {"measurement": "inhibition of cell proliferation", "setting": "[3]; 100 nM 4-OH-Tamoxifen alone", "result": 15, "unit": "%"},
      {"measurement": "maximum inhibition by a single dose", "setting": "[3]; 4-OH-Tamoxifen at 500 nM, T47-D", "result": "approximately 15 % of control"},
      {"measurement": "induction of apoptosis", "setting": "[4]; 4-OH-Tamoxifen 1 μM, 24 hours", "result": "did not induce apoptosis"}
    ]},
    {"molecule": "CC/C(=C(\\c1ccccc1)c1ccc(OCCN(C)C)cc1)c1ccccc1", "note": "[tamoxifen, reference compound]", "values": [
      {"measurement": "proliferation of T47D cells relative to untreated control cultures", "setting": "[5]", "result": "comparable inhibitory effect"}
    ]},
    {"molecule": "estrogen [reference compound]", "values": [
      {"measurement": "proliferation of T47D cells relative to untreated control cultures", "setting": "[5]", "result": "increased proliferation"}
    ]},
    {"molecule": "hGH-G120R: GH antagonist, variant of human GH with glycine at position 120 substituted with arginine", "values": [
      {"measurement": "effect on GH induction of STAT protein phosphorylation", "setting": "[6]", "result": "inhibit GH induction of STAT protein phosphorylation in a dose dependent manner"}
    ]},
    {"molecule": "hGH: human growth hormone", "values": [
      {"measurement": "shape of dose response curve, T-47D cell number", "setting": "[5]", "result": "bell shaped dose response curves"},
      {"measurement": "hGH receptor specific binding", "setting": "[7]", "result": "minimum"}
    ]},
    {"molecule": "hPRL: human prolactin, recombinant from transfected mouse L cells or purified from NIH (protein) LPICPGGAARCQVTLRDLFDRAVVLSHYIHNLSSEMFSEFDKRYTHGRGFITKAINSCHTSSLATPEDKEQAQQMNQKDFLSLIVSILRSWNEPLYHLVTEVRGMQEAPEAILSKAVEIEEQTKRLLEGMELIVSQVHPETKENEIYPVWSGLPSLQMADEESRLSAYYNLLHCLRRDSHKIDNYLKLLKCRIIHNNNC", "values": [
      {"measurement": "shape of dose response curve, T-47D cell number", "setting": "[5]", "result": "bell shaped dose response curves"},
      {"measurement": "proliferation of T47D cells relative to untreated control cultures", "setting": "[5]", "result": "increased proliferation"},
      {"measurement": "T47D proliferation relative to untreated T47D cell cultures", "setting": "[8]", "result": "increase in T47D proliferation"},
      {"measurement": "induction of phosphorylation of STAT5 proteins", "setting": "[9]", "result": "induced"},
      {"measurement": "maximum response in the presence of E2 compared to hPRL alone", "setting": "[3]; hPRL 100 ng/ml with 10 nM E2", "result": "more than tripled"},
      {"measurement": "maximum stimulation over basal levels", "setting": "[3]; hPRL 250 ng/ml, single dose, four-day incubation", "result": "approximately 20%"},
      {"measurement": "effect on T47-D proliferation, dose response", "setting": "[3]; single dose, four-day incubation", "result": "stimulated T47-D proliferation in a dose dependent manner"},
      {"measurement": "reversal of G129R-induced DNA fragmentation", "setting": "[4]; 4:1 ratio (500 ng/ml hPRL, 125 ng/ml hPRL-G129R)", "result": "competitively reverse the DNA fragmentation"}
    ]}
  ]
}
